From paper PMC10654779, “Development of a fibroblast activation protein-targeted PET/NIR dual-modality probe and its application in head and neck cancer” (Frontiers in Bioengineering and Biotechnology, 2023)

What was measured:
[1] = Optical properties (UV/Vis absorbance and fluorescence emission spectra); type: physicochemical; conditions: 10 μM in PBS, diluted from 1 mM DMSO
Procedure: The ultraviolet absorption spectra of FAP-2286-ICG were collected using a UV/Vis spectrophotometer (DU-730, BeckMan Coulter). Fluorescence spectra were collected using a fluorescence spectrometer (FLS980, Edinburgh instruments). FAP-2286-ICG and ICG were dissolved in DMSO at a concentration of 1 mM before being diluted with PBS to a final concentration of 10 μΜ, respectively. The absorbance spectra were taken between 600 and 1100 nm. The emission spectra were recorded in the 790–860 nm range at an excitation wavelength of 770 nm. The concentration dependence of fluorescence intensity of FAP-2286-ICG was assessed with different concentrations of FAP-2286-ICG (0–100 μM). The fluorescent images were collected using a small animal fluorescence imaging system (VISQUE InVivo Smart-LF, Vieworks Co., Ltd) and analyzed using CleVue™ software (Vieworks Co., Ltd).

[2] = test system: U87MG cells; experiment: Cellular retention by fluorescence imaging; type: cell-based, human; conditions: 3 μM (based on ICG), 37 °C, 24 h incubation, n = 5
Procedure: (§1) For the cellular uptake study, U87MG cells (2×10^5 cells/well) were seeded in 24-well plates and incubated at 37°C for 24 h before the experiments (five replicate wells per group). After removing the medium and washing the cells with fresh medium, the cells in each well were treated with DMEM medium containing 0.74 MBq [^68Ga]Ga-FAP-2286-ICG at 37°C for 30, 60, and 120 min. After removing the medium, the cells were washed twice with cold PBS, lysed with NaOH (1 M) twice (0.5 mL/well), and collected. The bound activity was measured with a γ-counter. For the blocking study, a 100-fold excess of the non-radiolabeled precursor was added before treating the cells with [^68Ga]Ga-FAP-2286-ICG. Subsequent experimental procedure and condition were the same as the aforementioned cellular uptake assay. To further verify whether the introduction of ICG affected the targeting of the precursor, [^68Ga]Ga-FAP-2286 was incubated with U87MG cells for 2 h as a control group. Additionally, the retention effect of probe on the tumor was verified. Briefly, U87MG cells were incubated with DMEM medium containing approximately 3 μM (based on the content of ICG) FAP-2286-ICG or ICG at 37 °C for 2, 4, 8, and 24 h. After discarding the medium, the cells were washed three times with PBS and imaged using a small animal FI system with ICG mode to quantify the fluorescent signal.

[3] = test system: U87MG xenografts; experiment: NIR fluorescence imaging of U87MG tumor-bearing mice; type: in vivo; conditions: 0.5-72 h post-injection, n = 3
Procedure: FI was performed using a small animal FI system with ICG mode: The NIR filter set (Excitation: 740–790 nm; Emission: 810–860 nm) was used for ICG fluorescence. The fluorescence intensity was calculated by the mean fluorescence intensity (MFI).
To evaluate the optimal imaging time window, NIR fluorescence images of U87MG tumor-bearing mice were collected at different time points (0.5, 1, 2, 24, 48, and 72 h) post-injection of FAP-2286-ICG (3.16 μg, 1.37 nmol). Following in vivo FI, mice were euthanized, and their xenografts and major organs were harvested for in vitro FI analysis. The ROIs were drawn manually in the tumor and organs on the fluorescence image to account for the distribution of FAP-2286-ICG in the tissue. MFI levels from organs and the TBRs using tumor/muscle values were evaluated.

[4] = human; no reference given; cited from earlier work
Source text: Novel methodologies employing dual-labeled probes aid the surgeon by allowing for more streamlined preoperative planning via PET/CT or PET/MRI and accurate intraoperative navigation guidance.

[5] = in vitro; type: in vitro ADME
Procedure: The radiochemical purity (RCP) of [^68Ga]Ga-FAP-2286-ICG was assessed using radio instant thin-layer chromatography (Radio-iTLC). Glass microfiber chromatography paper impregnated with a silica gel served as the stationary phase and methanol and 0.25 M sodium acetate (1:1, v/v) as the mobile phase.
The in vitro stability of [^68Ga]Ga-FAP-2286-ICG was assessed by co-culture with 0.01 M PBS and FBS at a concentration of 10% (w/w), respectively, and the mixtures were incubated at 37°C for 0.5, 1, and 2 h.

[6] = type: physicochemical; conditions: pH 7.4
Procedure: The octanol-water partition coefficient of [^68Ga]Ga-FAP-2286-ICG was detected by mixing 10 μL of freshly prepared [^68Ga]Ga-FAP-2286-ICG with 490 μL of PBS (0.1 M, pH 7.4) and 500 μL of n-octanol in a centrifuge tube. The mixture was vortexed for 3 min and centrifuged at 3,000 × rpm for 5 min for layer separation. An aliquot of the aqueous and n-octanol layers was separately collected and measured by γ counter (GC-2101, PET Co., Ltd). Log p values were calculated using the formula: log P = log(total counts in octanol/total counts in PBS).

[7] = test system: U87MG cells; experiment: Cellular uptake study (radioactivity, γ-counter); type: cell-based, human
Procedure: as §1

[8] = in vivo; type: in vivo, mice; conditions: female, BALB/c nude, mouse, in vivo, iv, total radioactivity
Procedure: (§2) All animal studies were performed according to the protocols approved by the Animal Welfare Ethics Committee of Shanghai Fourth People’s Hospital. Six to eight-week-old female BALB/c nude mice were purchased from Beijing Vital River Laboratory Animal Technology Co., Ltd. To establish cell-derived xenograft (CDX) models, the mice were implanted subcutaneously in the flanks with 5 × 10^6 U87MG cells in PBS containing 50% Matrigel. HNSCC cell lines (FaDu, CAL27, and CNE2) were inoculated subcutaneously on the right flanks of nude mice. The diameter of each tumor was determined and documented every 2–3 days. When the tumor reached 300–400 mm^3, the mice were used for the imaging study. The U87MG tumor-bearing mice were used to study the in vivo targeting, biodistribution, and optimal FI time window of [^68Ga]Ga-FAP-2286-ICG. HNSCC tumor-bearing mice were used to evaluate the feasibility of [^68Ga]Ga-FAP-2286-ICG for tumor localization and guided surgical resection of HNSCC tumors.
(§3) PET/CT imaging was performed in U87MG tumor-bearing mice to assess the tumor-targeting efficiency and biodistribution of [^68Ga]Ga-FAP-2286-ICG in vivo. The mice were injected with 10 MBq (1 nmol) of [^68Ga]Ga-FAP-2286-ICG through the tail vein, and images were performed at 30, 60, and 90 min after injection. The blocking group was pre-injected with the 50-fold molar excess of non-radiolabeled precursor 1 h in advance.

[9] = test system: U87MG xenografts; experiment: in vivo; type: in vivo, mice; conditions: for SUVmax of the tumor: U87MG tumor-bearing mice, 10 MBq (1 nmol) i.v.
Procedure: as §2, §3

[10] = test system: BALB/c mice; experiment: Toxicity study in BALB/c mice; type: in vivo
Procedure: The BALB/c mice were sacrificed and collected from the heart, liver, spleen, lung, and kidney to determine toxicity with hematoxylin and eosin (H&E) staining. The serum was collected to measure the levels of aspartate aminotransferase (AST), alanine aminotransferase (ALT), and blood urea nitrogen (UREA). Body weight was recorded every 5 days up to 20 days postinjection. The mice with intravenous injections of saline served as a control group.

Structure (SMILES)	NIR-I fluorescence emission peak ([1]; excitation 770 nm, 790-860 nm) [nm]	absorption peak ([1]; spectra 600-1100 nm) [nm]	fluorescent signal retained by cells [2]	fluorescence signal in the tumor site [3]	clinically safe dose [4] [mg/kg]	RCP after incubation in PBS [5]	remaining at 2 h ([5]; serum) [%]	partition coefficient log P [6]	cellular uptake ([7]; 0.74 MBq, 37°C, 60 min, five replicate wells)	cellular uptake, blocked ([7]; 60 min, 100-fold excess of non-radiolabeled precursor)	cellular uptake of [68Ga]Ga-FAP-2286-ICG compared to [68Ga]Ga-FAP-2286 ([7]; 2 h incubation, p = 0.1945)	SUV [8] [SUV]	SUVmax of the tumor, blocking group ([9]; 60 min p.i., 50-fold molar excess of non-radiolabeled precursor pre-injected 1 h in advance, n = 3)	SUVmax of the tumor ([9]; 30 min, n = 3)	SUVmax of the tumor ([9]; 90 min, n = 3)	route of elimination (PET/CT) ([9]; mouse, in vivo)	acute toxicity ([10]; BALB/c mice, 3-week period, n = 3)	serum concentrations of AST, ALT and UREA versus control group ([10]; BALB/c mice, 3 weeks after injection, saline control, n = 3)	pathological abnormalities in major organs (H&E) ([10]; mouse, in vivo)
CC1(C)C(/C=C/C=C/C=C/C=C2\N(CCCCS(=O)(=O)O)c3ccc4ccccc4c3C2(C)C)=[N+](CCCCS(=O)(=O)[O-])c2ccc3ccccc3c21 [ICG, indocyanine green]	808	779	3.13×10^13 ± 2.21×10^12 p/sec/cm^2/sr/[μW/cm^2]	no fluorescence signals in the tumor site	5	–	–	–	–	–	–	–	–	–	–	–	–	–	–
CCCCCC(=O)N[C@H]1CSCc2cc(CSCCNC(=O)[C@H](CCCCNC(=O)CCCCCN3/C(=C/C=C/C=C/C=C/C4=[N+](CCCCS(=O)(=O)[O-])c5ccc6ccccc6c5C4(C)C)C(C)(C)c4c3ccc3ccccc43)NC(=O)CN3CCN(CC(=O)O)CCN(CC(=O)O)CCN(CC(=O)O)CC3)cc(c2)CSC[C@@H](C(=O)O)NC(=O)[C@H](Cc2ccccc2)NC(=O)[C@H](CCC(N)=O)NC(=O)[C@H]([C@@H](C)O)NC(=O)[C@@H]2CCCN2C(=O)[C@@H]2CCCN2C1=O [[^68Ga]Ga-FAP-2286-ICG, metal not drawn]	–	–	–	–	–	greater than 85%	> 85	−1.20 ± 0.18	12.00% ± 1.73 %ID	6.88% ± 0.37 %ID	no statistically significant difference	0.18 ± 0.07	0.17 ± 0.01	0.57 ± 0.10	0.58 ± 0.23	mainly eliminated through liver metabolism and kidney excretion	no evident signs of acute toxicity	did not exhibit significant changes	No significant pathological abnormalities
